Laboratory results from patent publication US9241936B2, “Use of rupatadine in the manufacture of pharmaceutical composition for treating chronic obstructive pulmonary disease” (BEIJING WEIFENG YIMIN BIO-TECHNOLOGY LIMITED COMPANY, priority 2012, dated 2016).
Entries after “also recorded” stand apart in the source; their conditions may differ. Read-outs that look alike come from different tables or passages of the source.

Key:
[1] = system: histamine or PAF; conditions: cited from earlier work; for inhibition of blister: dogs, blister by subcutaneous histamine or PAF, rupatadine 0.3-10 mg/kg, oral administration
[2] = system: smoking-induced COPD mice; assay: amount of inflammatory cells in bronchoalveolar lavage fluid of smoking-induced COPD mice; type: in vivo, C57BL/6 mice
Excerpt: Main agents and animals for experiments: Cigarettes used in the experiment, type 3R4F, were purchased from Tobacco Research Center, University of Kentucky, USA. C57BL/6 mice on level SPF used in the experiment (male, aged 6-8 weeks, 16-18 g) were purchased from Institute of Animal, Chinese academy of medical sciences.
Preparation of COPD animal model: C57BL/6 mice were put in a smoke box and 5 cigarettes were inhaled without filter tip each time. The ratio of smoke to air was 1:6, and the whole flow rate of gas was 150 ml/min. Smoking experiment was conducted 4 times a day, 30 minutes for each time and last for 24 weeks.
Therapy: grouping and feeding animal models with medicaments. The groups were as table 1:
The mice were dissected at neck and the weasand was exposed for intubation. The lavage amount of PBS was 0.8 ml and the lavage was conducted 3-5 times. The lavage solution was recycled and centrifuged at 1500 r for 10 minutes at 4° C. The supernate was recycled and kept at −20° C. for the test of cytokines.
Cells were reselected and precipitated by 1 ml 1% BSA in PBS. 10 μl resuspension solution was taken for calculating the amount of cells and the hematology analyzer was used for analysis. It can be seen from FIG. 1, compared with the sham-operation group, the total number of hemameba (FIG. 1A), monocyte (FIG. 1B), neutrophile granulocyte (FIG. 1C), lymphocyte (FIG. 1D), basophil (FIG. 1E), and eosinophils (FIG. 1F) in bronchoalveolar lavage fluid of smoking-induced COPD mice increased extremely remarkably.

[3] = system: smoking-induced COPD mice; assay: amount of inflammatory cytokines in bronchoalveolar lavage fluid of smoking-induced COPD mice (ELISA); type: in vivo, C57BL/6 mice
Procedure: Main agents and animals for experiments: Cigarettes used in the experiment, type 3R4F, were purchased from Tobacco Research Center, University of Kentucky, USA. C57BL/6 mice on level SPF used in the experiment (male, aged 6-8 weeks, 16-18 g) were purchased from Institute of Animal, Chinese academy of medical sciences. […] C57BL/6 mice were put in a smoke box and 5 cigarettes were inhaled without filter tip each time. The ratio of smoke to air was 1:6, and the whole flow rate of gas was 150 ml/min. Smoking experiment was conducted 4 times a day, 30 minutes for each time and last for 24 weeks. Therapy: grouping and feeding animal models with medicaments. The groups were as table 1: [table] The mice were dissected at neck and the […] exposed for intubation. […] The lavage solution was recycled and centrifuged at 1500 r for 10 minutes at 4° C. The supernate was recycled and kept at -20° C. for the test. 100 μl supernate was taken to conduct ELISA examination, and commercial available ELISA kit was used to test the amount of inflammatory cytokines. It can be seen from FIG. 2, compared with the sham-operation group, the content of IL-2 (FIG. 2A), IL-4 (FIG. 2C), IL-17 (FIG. 2D) increased remarkably in lungs of COPD mice.

[4] = system: smoking-induced COPD mice; assay: pathological evaluation (HE staining) of lung tissue of smoking-induced COPD mice; type: in vivo, C57BL/6 mice; conditions: 6 mg/kg i.g. once a day for 4 weeks
Procedure: Main agents and animals for experiments: Cigarettes used in the experiment, type 3R4F, were purchased from Tobacco Research Center, University of Kentucky, USA. C57BL/6 mice on level SPF used in the experiment (male, aged 6-8 weeks, 16-18 g) were purchased from Institute of Animal, Chinese academy of medical sciences. […] C57BL/6 mice were put in a smoke box and 5 cigarettes were inhaled without filter tip each time. The ratio of smoke to air was 1:6, and the whole flow rate of gas was 150 ml/min. Smoking experiment was conducted 4 times a day, 30 minutes for each time and last for 24 weeks. Therapy: grouping and feeding animal models with medicaments. The groups were as table 1: [table] HE staining method is also named Hematoxylin-Eosin staining method. Hematoxylin dye liquor is alkaline, and mainly colors intranuclear chromatin and intracytoplasmic ribosome into bluish violet. Eosin is acidic dye, and mainly colors the components in cytoplasm and extracellular matrix. The lung tissues on the right lower lobe was cut, fixed by 4 wt % paraformaldehyde and then embedded by paraffin. The largest cross-section of the paraffin embedding lung tissue was stained by HE staining method, and the result was shown in FIG. 3.

[5] = system: TLR4 mutant C3H/HeJ mice with emphysema; assay: pathological evaluation (HE staining) of mice with emphysema induced by TLR4 mutant; type: in vivo; conditions: i.g. once a day for 4 weeks
Excerpt: Animals for experiment: C3H/HeN wild type mice on SPF level were purchased from Beijing Vitalriver Experimental Animals Limited Company. TLR4 mutant C3H/HeJ mice were purchased from Institute of model animals, Nanjing University.
Method: Fed the SPF mice and the TLR4 mutant mice in experimental animal center of Institute of pharmaceutics research, Chinese academy of medical sciences. Provide free diet under constant temperature and humidity. The mice were killed until they were 3 months old.
Therapy: Grouping and feeding animal models with medicaments.
HE staining method is also named Hematoxylin-Eosin staining Hematoxylin dye liquor is alkaline, and mainly colors intranuclear chromatin and intracytoplasmic ribosome into bluish violet; Eosin is acidic dye, and mainly colors the components in cytoplasm and extracellular matrix.
The lung tissues on the right lower lobe was cut, fixed by 4 wt % paraformaldehyde and then embedded by paraffin. The largest cross-section of the paraffin embedding the lung tissue was stained by HE staining method, and the result was shown in FIG. 4.

[6] = system: PAF; conditions: read-out: IC50 of platelet aggregation induced by PAF, cited from earlier work
[7] = system: PAF; conditions: whole blood of dogs; read-out: IC50 of platelet aggregation induced by PAF; cited from earlier work
[8] = system: histamine or PAF; conditions: cited from earlier work
[9] = system: mastocytes; conditions: cited from earlier work
[10] = system: eosinophil; conditions: cited from earlier work
[11] = cited from earlier work
[12] = system: patients suffering seasonal or perennial allergic rhinitis; conditions: cited from earlier work
[13] = system: mouse; conditions: 1000 mg/Kg; cited from earlier work
[14] = system: macaque; conditions: 10 mg/Kg; cited from earlier work
[15] = system: rats, Guinea pigs and dogs; conditions: cited from earlier work
[16] = system: histamine H1 receptors; conditions: cited from earlier work
[17] = system: pulmonary fibrosis induced by Bleomycin of mammals; conditions: cited from earlier work
[18] = target: histamine H1 receptors (Cavia porcellus, UniProt P31389); conditions: cited from earlier work
[19] = bronchoalveolar lavage fluid, 6 mg/kg i.g. once a day for 4 weeks after modeling
[20] = 6 mg/Kg rupatadine treated group
[21] = bronchoalveolar lavage fluid, ELISA, 6 mg/kg i.g. once a day for 4 weeks after modeling

Chain of histamine H1 receptors (Cavia porcellus, UniProt P31389) (P31389 whole entry): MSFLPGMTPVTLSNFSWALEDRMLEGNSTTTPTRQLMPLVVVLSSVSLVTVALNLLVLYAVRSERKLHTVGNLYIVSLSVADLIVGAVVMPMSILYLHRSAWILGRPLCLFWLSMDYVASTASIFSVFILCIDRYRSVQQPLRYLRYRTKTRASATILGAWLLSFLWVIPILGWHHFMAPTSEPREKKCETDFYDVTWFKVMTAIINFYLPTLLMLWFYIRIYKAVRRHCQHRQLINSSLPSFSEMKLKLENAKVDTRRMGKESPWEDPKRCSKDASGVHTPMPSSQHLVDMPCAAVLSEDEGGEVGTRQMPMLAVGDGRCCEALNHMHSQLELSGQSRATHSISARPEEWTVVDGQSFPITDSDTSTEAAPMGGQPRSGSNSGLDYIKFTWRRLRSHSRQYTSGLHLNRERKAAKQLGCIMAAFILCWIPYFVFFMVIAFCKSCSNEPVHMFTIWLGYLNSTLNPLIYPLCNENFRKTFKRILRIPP

Compound: O=C(O)COCCN1CCN(C(c2ccccc2)c2ccc(Cl)cc2)CC1 (stereo not shown) [cetirizine]
- inhibition of blister [1]: can only inhibit the blister induced by histamine

Compound: CCOC(=O)N1CCC(=C2c3ccc(Cl)cc3CCc3cccnc32)CC1 [loratadine]
- inhibition of blister [1]: can only inhibit the blister induced by histamine

Compound: Cc1cncc(CN2CCC(=C3c4ccc(Cl)cc4CCc4cccnc43)CC2)c1 [rupatadine, Rupatadine]
- amount of various inflammatory cells in bronchoalveolar lavage fluid compared to the model group ([2]; 6 mg/kg rupatadine treated group): could remarkably reduce the amount of various inflammatory cells
- Basophil [2, 19]: 24.816 * 10^4 number/mL
- Eosinophils [2, 19]: 34.692 * 10^4 number/mL
- Lymphocyte [2, 19]: 32.694 * 10^5 number/mL
- Monocyte [2, 19]: 49.504 * 10^5 number/mL
- Neutrophile granulocyte [2, 19]: 33.864 * 10^5 number/mL
- total hemameba [2, 19]: 13.69 * 10^6 number/mL
- content of IFN-γ [3, 20]: did not affect the content of IFN-γ
- content of various inflammatory cytokines in lungs of COPD mice [3, 20]: could reduce the content of various inflammatory cytokines
- IFN-γ [3, 21]: 26.28 pg/mL
- IL-2 [3, 21]: 6.71 pg/mL
- IL-4 [3, 21]: 6.54 pg/mL
- IL-17 [3, 21]: 35.53 pg/mL
- lung tissue pathology, structure of alveoli (HE staining) [4]: could effectively recover normal structure of alveoli
- lung tissue pathology, emphysema / structure of alveoli (HE staining) [5]: could effectively recover normal structure of alveoli
- IC50 ([6]; platelet rich plasma (of rabbits)): 2900 nM
- IC50 [6]: 200 nM
- IC50 [7]: 290 nM
- duration of effect ([1]; after intake of rupatadine): 24 h
- time of best potency after intake ([1]; after intake of rupatadine): 4 h
- inhibition of blister [1]: can effectively inhibit blister
- inhibition of conjunctivitis ([8]; Guinea pig, induced by histamine or PAF): can inhibit conjunctivitis induced by histamine or PAF
- therapy effect of eye drops, times better than loratadine ([8]; applied to eye drops, versus loratadine): 10 times
- inhibition of degranulation of mastocytes [9]: can inhibit
- inhibition of chemotaxis of eosinophil [10]: can inhibit
- time for blood concentration to reach the peak ([11]; after intaking tablet): 1 h
- time for blood concentration to reach the peak ([11]; after intaking the capsule): 1.5 h
- half-life period ([11]; as stated in b6): 5.9 h
- half-life period ([11]; oral administration): 12 h
- alleviation of symptoms relative to placebo ([12]; 2.5 mg, 5 mg, 10 mg, 20 mg per day, two weeks): can alleviate the symptoms more effectively than placebo
- effects compared with loratadine ([12]; 10 mg or 20 mg per day rupatadine vs 10 mg per day loratadine, two weeks, seasonal allergic rhinitis): better effects than intaking 10 mg per day loratadine
- side effects on central nervous system ([12]; 10 mg per day, compared with cetirizine): little side effects on central nervous system
- therapeutic effects compared with ebastine ([12]; 10 mg rupatadine vs 10 mg ebastine daily for 2 weeks, seasonal allergic rhinitis): better therapeutic effects than ebastine
- alleviation of symptoms of seasonal allergic rhinitis compared with loratadine and ebastine ([12]; same dosage): can alleviate the symptoms of seasonal allergic rhinitis more than loratadine and ebastine
- alleviation of nasal and optical symptoms relative to placebo ([12]; seasonal allergic rhinitis patients, 10 mg and 20 mg per day, two weeks): much more alleviated
- period of QTC and QRS [13]: would not be extended
- period of QTC and QRS [14]: would not be extended
- arrhythmia [15]: nor would it lead to arrhythmia
- affinity to histamine H1 receptors [16]: good affinity
- selectivity to peripheral nervous receptors H1 [16]: highly selective
- effect on pulmonary fibrosis induced by Bleomycin ([17]; in vivo): can convert the pulmonary fibrosis induced by Bleomycin
- lethal rate caused by pulmonary fibrosis induced by Bleomycin ([17]; mammals): declining the lethal rate
- anti-histamine activity compared with other medicaments ([18]; in vitro): stronger anti-histamine activity than terfenadine, loratadine, cetirizine, hydroxyzine, diphenhydramine; also recorded: the same as desloratadine
- IC50 ([18]; read-out: anti-histamine activity IC50, ileum of Guinea pig in vitro): 3.5 nM
- anti-histamine activity, times stronger than loratadine ([18]; versus loratadine): 80 times
- anti-histamine activity, times stronger than other anti-histamine medicaments ([18]; versus other anti-histamine medicaments): 100 times

Compound: IL-17A: IL-17A used in positive control group, purchased from R&D Company
- lung tissue pathology, emphysema / structure of alveoli (HE staining) [5]: could effectively inhibit the further development of emphysema in mice
